Structures can show the parent of a compound that is named as a salt.
target: T1, human DPP-IV (Homo sapiens, UniProt P27487); test: DPP-IV activity assay (fluorogenic / colorimetric), IC50 determination; assay type: biochemical; details: natural human DPP-IV from human plasma pool or recombinant human DPP-IV; 37° C., pH 7.8
T1 construct: made in house; host or cells: Pichia pastoris
Description: Activity of DPP-IV inhibitors are tested with natural human DPP-IV derived from a human plasma pool or with recombinant human DPP-IV. Human citrate plasma from different donors is pooled, filtered through a 0.2 micron membrane under sterile conditions and aliquots of 1 ml are shock frozen and stored at −120° C. until used. In the colorimetric DPP-IV assay 5 to 10 μl human plasma and in the fluorometric assay 1.0 μl of human plasma in a total assay volume of 100 μl is used as an enzyme source. The cDNA of the human DPP-IV sequence of amino acid 31- to 766, restricted for the N-terminus and the transmembrane domain, is cloned into Pichia pastoris. Human DPP-IV is expressed and purified from the culture medium using conventional column chromatography including size exclusion and anion and cation chromatography. The purity of the final enzyme preparation of Coomassie blue SDS-PAGE is >95%. In the colorimetric DPP-IV assay 20 ng rec.-h DPP-IV and in the fluorometric assay 2 ng rec-h DPP-IV in a total assay volume of 100 μl is used as an enzyme source.
In the fluorogenic assay Ala-Pro-7-amido-4-trifluoromethylcoumarin (Calbiochem No 125510) is used as a substrate. A 20 mM stock solution in 10% DMF/H2O is stored at −20° C. until use. […]
Fluorescence is detected in a Perkin Elmer Luminescence Spectrometer LS 50B at an excitation wavelength of 400 nm and an emission wavelength of 505 nm continuously every 15 seconds for 10 to 30 minutes. Initial rate constants are calculated by best fit linear regression. The absorption of pNA liberated from the colorimetric substrate is detected in a Packard SpectraCount at 405 nm continuously every 2 minutes for 30 to 120 minutes. Initial rate constants are calculated by best fit linear regression. […]
IC50 determinations of test compounds are calculated by non-linear best fit regression of the DPP-IV inhibition of at least 5 different compound concentrations. Kinetic parameters of the enzyme reaction are calculated at least 5 different substrate concentrations and at least 5 different test compound concentrations.

T1 sequence (P27487 31-766): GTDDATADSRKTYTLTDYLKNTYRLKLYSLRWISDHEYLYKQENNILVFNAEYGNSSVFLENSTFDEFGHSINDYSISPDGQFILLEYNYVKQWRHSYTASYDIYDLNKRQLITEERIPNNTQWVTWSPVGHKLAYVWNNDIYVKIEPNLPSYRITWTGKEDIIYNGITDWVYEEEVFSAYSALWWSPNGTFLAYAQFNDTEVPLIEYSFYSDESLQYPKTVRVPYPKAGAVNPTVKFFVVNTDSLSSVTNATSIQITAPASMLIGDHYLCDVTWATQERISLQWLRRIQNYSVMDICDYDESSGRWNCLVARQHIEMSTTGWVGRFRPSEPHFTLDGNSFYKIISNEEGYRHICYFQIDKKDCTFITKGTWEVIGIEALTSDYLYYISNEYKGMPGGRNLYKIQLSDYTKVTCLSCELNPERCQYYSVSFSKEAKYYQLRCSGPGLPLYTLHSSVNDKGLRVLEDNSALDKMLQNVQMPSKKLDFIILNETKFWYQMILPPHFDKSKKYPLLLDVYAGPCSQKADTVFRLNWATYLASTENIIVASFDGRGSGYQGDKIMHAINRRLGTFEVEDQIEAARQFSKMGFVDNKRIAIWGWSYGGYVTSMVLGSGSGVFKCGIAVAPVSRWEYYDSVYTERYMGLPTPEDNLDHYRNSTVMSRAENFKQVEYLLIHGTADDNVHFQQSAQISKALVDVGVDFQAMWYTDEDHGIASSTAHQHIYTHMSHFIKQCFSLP

| SMILES | IC50 [nM] |
| --- | --- |
| COc1cc2c(cc1OCC(N)=O)CCN1C[C@H](c3cc(C)ccc3C)[C@@H](N)C[C@@H]21 (racemic) [Example 8, (2S,3S,11bS)- and (2R,3R,11bR)-2-[2-Amino-3-(2,5-dimethyl-phenyl)-10-methoxy-1,3,4,6,7,11b-hexahydro-2H-pyrido[2,1-a]isoquinolin-9-yloxy]-acetamide, hydrochloride] | 0.1 |
| COc1cc2c(cc1OCC(=O)Nc1nn[nH]n1)CCN1C[C@H](c3cc(C)ccn3)[C@@H](N)C[C@@H]21 (racemic) [Example 13, (2S,3S,11bS)- and (2R,3R,11bR)-2-[2-Amino-10-methoxy-3-(4-methyl-pyridin-2-yl)-1,3,4,6,7,11b-hexahydro-2H-pyrido[2,1-a]isoquinolin-9-yloxy]-N-(2H-tetrazol-5-yl)-acetamide hydrochloride] | 1.1 |
| COc1ccc2c(c1OCC(=O)N(C)C)CCN1C[C@H](c3cccc(C)c3)[C@@H](N)C[C@@H]21 (racemic) [Example 48, rac-2-((2S,3S,11bS)-2-Amino-9-methoxy-3-m-tolyl-1,3,4,6,7,11b-hexahydro-2H-pyrido[2,1-a]isoquinolin-8-yloxy)-N,N-dimethyl-acetamide] | 0.3 |

Reference: patent US20100222340A1, “SUBSTITUTED PYRIDO [1,2-a] ISOQUINOLINE DERIVATIVES” (priority 2004, published 2010)
